Source: patent US20160287589A1, “SUBSTITUTED-IMIDAZOPYRIDAZINES” (BAYER PHARMA AKTIENGESELLSCHAFT, priority 2013, published 2016)

Experiments:
[1] = biological target: T1, MKNK1 (Homo sapiens, UniProt Q9BUB5, T385D); test: MKNK1 kinase high ATP assay (TR-FRET-based); assay type: biochemical; details: 2 mM ATP, 15 min preincubation
T1 construct: GST (N); purchased Carna Biosciences 02-145; host or cells: insect cells (baculovirus expression system)
Procedure, shortened: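 GST-tagged full-length human MKNK1 (aa 1-424, T344D) from insect cells, preincubated with compound 15 min at 22 °C. Reaction 30 min at 22 °C with 2 mM ATP and 0.06 μM biotinylated peptide in HEPES pH 7.5, Mg2+, DTT. Phosphopeptide detected by TR-FRET (665/622 ratio) with anti-pS6 (pSer236) antibody; normalised to no-inhibitor and no-enzyme controls.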

[2] = biological target: T1, MKNK1; test: MKNK1 kinase assay (MKNK1 TR-FRET assay); assay type: biochemical; details: 10 μM ATP, 15 min preincubation

T1 sequence (Q9BUB5 1-424 isoform Q9BUB5-2 T344D): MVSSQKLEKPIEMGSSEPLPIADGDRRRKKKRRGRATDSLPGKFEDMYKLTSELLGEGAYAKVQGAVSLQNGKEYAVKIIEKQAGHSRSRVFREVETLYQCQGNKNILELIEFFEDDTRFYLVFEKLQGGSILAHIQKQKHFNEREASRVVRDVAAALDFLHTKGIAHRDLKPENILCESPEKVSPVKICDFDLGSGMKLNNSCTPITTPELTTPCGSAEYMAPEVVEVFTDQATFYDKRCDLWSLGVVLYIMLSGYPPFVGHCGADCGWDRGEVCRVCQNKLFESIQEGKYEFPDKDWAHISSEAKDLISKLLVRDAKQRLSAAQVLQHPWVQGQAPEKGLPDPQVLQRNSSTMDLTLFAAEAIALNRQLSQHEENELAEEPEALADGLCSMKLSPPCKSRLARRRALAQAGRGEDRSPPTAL

Compound: C[C@H]1CN(c2nccc3oc(-c4cnc5ccc(OC[C@H]6CCC(=O)N6)nn45)cc23)CCO1 [III-123, (5R)-5-{[(3-{4-[(2S)-2-methylmorpholin-4-yl]furo[3,2-c]pyridin-2-yl}imidazo[1,2-b]pyridazin-6-yl)oxy]methyl}pyrrolidin-2-one]
- IC50 ([1]; Table 2c): 0.5 nM
- IC50 ([2]; Table 1c): 2.2 nM

Compound: C[C@@H](N)COc1ccc2ncc(-c3cc4c(N5CCOC(C)(C)C5)nccc4o3)n2n1 [III-124, (2R)-1-({3-[4-(2,2-dimethylmorpholin-4-yl)furo[3,2-c]pyridin-2-yl]imidazo[1,2-b]pyridazin-6-yl}oxy)propan-2-amine]
- IC50 ([1]; Table 2c): 13.9 nM
- IC50 ([2]; Table 1c): 16.8 nM

Compound: C[C@@H]1CN(c2nccc3oc(-c4cnc5ccc(OC[C@@H]6CCC(=O)N6)nn45)cc23)CCO1 [III-125, (5S)-5-{[(3-{4-[(2R)-2-methylmorpholin-4-yl]furo[3,2-c]pyridin-2-yl}imidazo[1,2-b]pyridazin-6-yl)oxy]methyl}pyrrolidin-2-one]
- IC50 ([1]; Table 2c): 7.1 nM
- IC50 ([2]; Table 1c): 7.4 nM

Compound: CC1(C)CN(c2nccc3oc(-c4cnc5ccc(OCC(F)(F)F)nn45)cc23)CCN1 [III-126, 3-[4-(3,3-dimethylpiperazin-1-yl)furo[3,2-c]pyridin-2-yl]-6-(2,2,2-trifluoroethoxy)imidazo [1,2-b]pyridazine]
- IC50 ([1]; Table 2c): 2.6 nM
- IC50 ([2]; Table 1c): 5.3 nM

Compound: C[C@H](N)COc1ccc2ncc(-c3cc4c(N5CCOC(C)(C)C5)nccc4o3)n2n1 [III-128, (2S)-1-({3-[4-(2,2-dimethylmorpholin-4-yl)furo[3,2-c]pyridin-2-yl]imidazo[1,2-b]pyridazin-6-yl}oxy)propan-2-amine]
- IC50 ([1]; Table 2c): 11.8 nM
- IC50 ([2]; Table 1c): 12.8 nM

Compound: CC1(C)CN(c2nccc3oc(-c4cnc5ccc(O[C@H]6C[C@H](N)C6)nn45)cc23)CCO1 [III-129, trans-3-({3-[4-(2,2-dimethylmorpholin-4-yl)furo[3,2-c]pyridin-2-yl]imidazo[1,2-b]pyridazin-6-yl}oxy)cyclobutanamine]
- IC50 ([1]; Table 2c): 14.1 nM
- IC50 ([2]; Table 1c): 16.8 nM

Compound: COc1ccc2ncc(-c3cc4c(N5CCNC(C)(C)C5)nccc4o3)n2n1 [III-130, 3-[4-(3,3-dimethylpiperazin-1-yl)furo[3,2-c]pyridin-2-yl]-6-methoxy-imidazo[1,2-b]pyridazine]
- IC50 ([1]; Table 2c): 1.5 nM
- IC50 ([2]; Table 1c): 5.3 nM

Compound: CC1(C)CN(c2nccc3oc(-c4cnc5ccc(OCCCS(C)(=O)=O)nn45)cc23)CCN1 [III-131, 3-[4-(3,3-dimethylpiperazin-1-yl)furo[3,2-c]pyridin-2-yl]-6-[3-(methylsulfonyl)propoxy] imidazo[1,2-b]pyridazine]
- IC50 ([1]; Table 2c): 7 nM
- IC50 ([2]; Table 1c): 11.9 nM

Compound: CC1(C)CN(c2nccc3oc(-c4cnc5ccc(OC[C@@H]6CCC(=O)N6)nn45)cc23)CCO1 [III-132, (5S)-5-[({3-[4-(2,2-dimethylmorpholin-4-yl)furo[3,2-c]pyridin-2-yl]imidazo[1,2-b]pyridazin-6-yl}oxy)methyl]pyrrolidin-2-one]
- IC50 ([1]; Table 2c): 2.5 nM
- IC50 ([2]; Table 1c): 6.8 nM

Compound: COc1ccc2ncc(-c3cc4c(N5CCN[C@@H](C)C5)nccc4o3)n2n1 [III-133, 6-methoxy-3-{4-[(3S)-3-methylpiperazin-1-yl]furo[3,2-c]pyridin-2-yl}imidazo[1,2-b]pyridazine]
- IC50 ([1]; Table 2c): 13.1 nM
- IC50 ([2]; Table 1c): 2.7 nM

Compound: CC1(C)CN(c2nccc3oc(-c4cnc5ccc(OC[C@@H]6CCC(=O)N6)nn45)cc23)CCN1 [III-134, (5S)-5-[({3-[4-(3,3-dimethylpiperazin-1-yl)furo[3,2-c]pyridin-2-yl]imidazo[1,2-b]pyridazin-6-yl}oxy)methyl]pyrrolidin-2-one]
- IC50 ([1]; Table 2c): 1 nM
- IC50 ([2]; Table 1c): 2 nM

Compound: CC1(C)CN(c2nccc3oc(-c4cnc5ccc(OCCCS(C)(=O)=O)nn45)cc23)CCO1 [III-135, 3-[4-(2,2-dimethylmorpholin-4-yl)furo[3,2-c]pyridin-2-yl]-6-[3-(methylsulfonyl)propoxy] imidazo[1,2-b]pyridazine]
- IC50 ([1]; Table 2c): 12.9 nM
- IC50 ([2]; Table 1c): 30.1 nM

Compound: COC[C@@H]1CCCN1c1nccc2oc(-c3cnc4ccc(O[C@H](C)CN)nn34)cc12 [III-136, (2R)-2-[(3-{4-[(2S)-2-(methoxymethyl)pyrrolidin-1-yl]furo[3,2-c]pyridin-2-yl}imidazo[1,2-b]pyridazin-6-yl)oxy]propan-1-amine]
- IC50 ([1]; Table 2c): 122 nM
- IC50 ([2]; Table 1c): 52.5 nM

Compound: CCN(CCOC)c1nccc2oc(-c3cnc4ccc(OCCC[S@@](C)(=O)=NC#N)nn34)cc12 [III-137, [{3-[(3-{4-[ethyl(2-methoxyethyl)ami-no]furo[3,2-c]pyridin-2-yl}imidazo[1,2-b]pyridazin-6-yl)oxy]propyl}(methyl)oxido-λ^6-sulfanylidene]cyanamide]
- IC50 ([1]; Table 2c): 0.6 nM
- IC50 ([2]; Table 1c): 2.7 nM

Compound: CCN(CCOC)c1nccc2oc(-c3cnc4ccc(OC[C@@H]5CCCN5)nn34)cc12 [III-139, N-ethyl-N-(2-methoxyethyl)-2-{6-[(2S)-pyrrolidin-2-ylmeth-oxy]imidazo[1,2-b]pyridazin-3-yl}furo[3,2-c]pyridin-4-amine]
- IC50 ([1]; Table 2c): 1.7 nM
- IC50 ([2]; Table 1c): 3 nM

Compound: CC1(C)CN(c2nccc3oc(-c4cnc5ccc(OC[C@H]6CCC(=O)N6)nn45)cc23)CCN1 [III-141, (5R)-5-[({3-[4-(3,3-dimethylpiperazin-1-yl)furo[3,2-c]pyridin-2-yl]imidazo[1,2-b]pyridazin-6-yl}oxy)methyl]pyrrolidin-2-one]
- IC50 ([1]; Table 2c): 1.4 nM
- IC50 ([2]; Table 1c): 3.3 nM

Compound: CC1(C)CN(c2nccc3oc(-c4cnc5ccc(OC[C@H]6CCC(=O)N6)nn45)cc23)CCO1 [III-142, (5R)-5-[({3-[4-(2,2-dimethylmorpholin-4-yl)furo[3,2-c]pyridin-2-yl]imidazo[1,2-b]pyridazin-6-yl}oxy)methyl]pyrrolidin-2-one]
- IC50 ([1]; Table 2c): 0.5 nM
- IC50 ([2]; Table 1c): 1.6 nM

Compound: C[C@H]1CN(c2nccc3oc(-c4cnc5ccc(OCCCS(C)(=O)=O)nn45)cc23)CCN1 [III-143, 3-{4-[(3S)-3-methylpiperazin-1-yl]furo[3,2-c]pyridin-2-yl}-6-[3-(methylsulfonyl)propoxy] imidazo[1,2-b]pyridazine]
- IC50 ([1]; Table 2c): 10 nM
- IC50 ([2]; Table 1c): 3.7 nM

Compound: COc1ccc2ncc(-c3cc4c(N5CCN[C@H](C)C5)nccc4o3)n2n1 [III-144, 6-methoxy-3-{4-[(3R)-3-methylpiperazin-1-yl]furo[3,2-c]pyridin-2-yl}imidazo[1,2-b]pyridazine]
- IC50 ([1]; Table 2c): 6.7 nM
- IC50 ([2]; Table 1c): 4.6 nM

Compound: C[C@H]1CN(c2nccc3oc(-c4cnc5ccc(OCC(F)(F)F)nn45)cc23)CCN1 [III-145, 3-{4-[(3S)-3-methylpiperazin-1-yl]furo[3,2-c]pyridin-2-yl}-6-(2,2,2-trifluoroethox-y)imidazo[1,2-b]pyridazine]
- IC50 ([1]; Table 2c): 24 nM
- IC50 ([2]; Table 1c): 9.7 nM

Compound: COc1ccc2ncc(-c3cc4c(N5CCOC(C)(C)C5)nccc4o3)n2n1 [III-146, 3-[4-(2,2-dimethylmorpholin-4-yl)furo[3,2-c]pyridin-2-yl]-6-methoxy-imidazo[1,2-b]pyridazine]
- IC50 ([1]; Table 2c): 8.7 nM
- IC50 ([2]; Table 1c): 27 nM

Compound: CC(=O)N1CCC[C@H]1CCOc1ccc2ncc(-c3cc4cnccc4o3)n2n1 [IV-1, 1-[(2S)-2-(2-{[3-(Furo[3,2-c]pyridin-2-yl)imidazo[1,2-b]pyridazin-6-yl]oxy}ethyl)pyrrolidin-1-yl]ethanone]
- IC50 ([1]; Table 2d): 12 nM
- IC50 ([2]; Table 1d): 5 nM

Compound: COc1nccc2oc(-c3cnc4ccc(OCCC5CCC(=O)N5)nn34)cc12 (stereo not drawn) [IV-2, 5-(2-{[3-(4-Methoxyfuro[3,2-c]pyridin-2-yl)imidazo[1,2-b]pyridazin-6-yl]oxy}-ethyl)pyrrolidin-2-one]
- IC50 ([1]; Table 2d): 26 nM
- IC50 ([2]; Table 1d): 11 nM

Compound: COc1nccc2oc(-c3cnc4ccc(OC[C@@H]5CCC(=O)N5)nn34)cc12 [IV-3, (5S)-5-({[3-(4-Methoxyfuro[3,2-c]pyridin-2-yl)imidazo[1,2-b]pyridazin-6-yl]-oxy}methyl)pyrrolidin-2-one]
- IC50 ([1]; Table 2d): 28 nM
- IC50 ([2]; Table 1d): 10 nM

Compound: CC(C)Oc1nccc2oc(-c3cnc4ccc(OC[C@H]5CCC(=O)N5)nn34)cc12 [IV-4, (5R)-5-[({3-[4-(Propan-2-yloxy)furo[3,2-c]pyridin-2-yl]imidazo[1,2-b]pyridazin-6-yl}oxy)methyl]pyrrolidin-2-one]
- IC50 ([1]; Table 2d): 4 nM
- IC50 ([2]; Table 1d): 2 nM

Compound: CC(C)(C)COc1nccc2oc(-c3cnc4ccc(OC[C@H]5CCC(=O)N5)nn34)cc12 [IV-5, (5R)-5-[({3-[4-(2,2-Dimethylpropoxy)furo[3,2-c]pyridin-2-yl]imidazo[1,2-b]-pyridazin-6-yl}oxy)methyl]pyrrolidin-2-one]
- IC50 ([1]; Table 2d): 4 nM
- IC50 ([2]; Table 1d): 2 nM

Compound: COc1nccc2oc(-c3cnc4ccc(OC[C@H]5CCC(=O)N5)nn34)cc12 [IV-6, (5R)-5-({[3-(4-Methoxyfuro[3,2-c]pyridin-2-yl)imidazo[1,2-b]pyridazin-6-yl]-oxy}methyl)pyrrolidin-2-one]
- IC50 ([1]; Table 2d): 8 nM
- IC50 ([2]; Table 1d): 4 nM

Compound: CC(C)(C)C(=O)N1CCC[C@H]1CCOc1ccc2ncc(-c3cc4cnccc4o3)n2n1 [IV-7, 1-[(2S)-2-(2-{[3-(Furo[3,2-c]pyridin-2-yl)imidazo[1,2-b]pyridazin-6-yl]-oxy}ethyl)pyrrolidin-1-yl]-2,2-dimethylpropan-1-one]
- IC50 ([1]; Table 2d): 4 nM
- IC50 ([2]; Table 1d): 1 nM

Compound: COc1nccc2oc(-c3cnc4ccc(OC[C@H]5CN(C(=O)C6CC6)CCO5)nn34)cc12 [IV-8, Cyclopropyl[(2R)-2-({[3-(4-methoxyfuro[3,2-c]pyridin-2-yl)imidazo[1,2-b]-pyridazin-6-yl]oxy}methyl)morpholin-4-yl]methanone]
- IC50 ([1]; Table 2d): 10 nM
- IC50 ([2]; Table 1d): 4 nM

Compound: COc1nccc2oc(-c3cnc4ccc(OCC5CCCC(=O)N5)nn34)cc12 (stereo not drawn) [IV-9, 6-({[3-(4-Methoxyfuro[3,2-c]pyridin-2-yl)imidazo[1,2-b]pyridazin-6-yl]oxy}-methyl)piperidin-2-one]
- IC50 ([1]; Table 2d): 9 nM
- IC50 ([2]; Table 1d): 3 nM
